Experimental findings from patent publication US8921376B2, “Pyrrolopyridines useful as inhibitors of protein kinase” (Vertex Pharmaceuticals Incorporated, priority 2005, dated 2014) are described below.

What all share (type): biochemical
In experiment [1] the target is ROCK I (Homo sapiens, UniProt Q13464). Nature of the experiment: ROCK-I inhibition assay (radioactive enzyme assay, MBP substrate). An outline of the steps:
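Human ROCK at 5 nM phosphorylated 27 μM myelin basic protein with 13 μM [γ-33P]ATP (final) in HEPES pH 7.5, MgCl2, NaCl, DTT and 1.5% DMSO. Reactions ran 2 h at room temperature before TCA quench and filter-plate scintillation counting. After background subtraction, data were fit to give Ki(app).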

Experiment [2] deals with T1, JAK3 (Homo sapiens, UniProt P52333).
T1 sequence (P52333 1-1124): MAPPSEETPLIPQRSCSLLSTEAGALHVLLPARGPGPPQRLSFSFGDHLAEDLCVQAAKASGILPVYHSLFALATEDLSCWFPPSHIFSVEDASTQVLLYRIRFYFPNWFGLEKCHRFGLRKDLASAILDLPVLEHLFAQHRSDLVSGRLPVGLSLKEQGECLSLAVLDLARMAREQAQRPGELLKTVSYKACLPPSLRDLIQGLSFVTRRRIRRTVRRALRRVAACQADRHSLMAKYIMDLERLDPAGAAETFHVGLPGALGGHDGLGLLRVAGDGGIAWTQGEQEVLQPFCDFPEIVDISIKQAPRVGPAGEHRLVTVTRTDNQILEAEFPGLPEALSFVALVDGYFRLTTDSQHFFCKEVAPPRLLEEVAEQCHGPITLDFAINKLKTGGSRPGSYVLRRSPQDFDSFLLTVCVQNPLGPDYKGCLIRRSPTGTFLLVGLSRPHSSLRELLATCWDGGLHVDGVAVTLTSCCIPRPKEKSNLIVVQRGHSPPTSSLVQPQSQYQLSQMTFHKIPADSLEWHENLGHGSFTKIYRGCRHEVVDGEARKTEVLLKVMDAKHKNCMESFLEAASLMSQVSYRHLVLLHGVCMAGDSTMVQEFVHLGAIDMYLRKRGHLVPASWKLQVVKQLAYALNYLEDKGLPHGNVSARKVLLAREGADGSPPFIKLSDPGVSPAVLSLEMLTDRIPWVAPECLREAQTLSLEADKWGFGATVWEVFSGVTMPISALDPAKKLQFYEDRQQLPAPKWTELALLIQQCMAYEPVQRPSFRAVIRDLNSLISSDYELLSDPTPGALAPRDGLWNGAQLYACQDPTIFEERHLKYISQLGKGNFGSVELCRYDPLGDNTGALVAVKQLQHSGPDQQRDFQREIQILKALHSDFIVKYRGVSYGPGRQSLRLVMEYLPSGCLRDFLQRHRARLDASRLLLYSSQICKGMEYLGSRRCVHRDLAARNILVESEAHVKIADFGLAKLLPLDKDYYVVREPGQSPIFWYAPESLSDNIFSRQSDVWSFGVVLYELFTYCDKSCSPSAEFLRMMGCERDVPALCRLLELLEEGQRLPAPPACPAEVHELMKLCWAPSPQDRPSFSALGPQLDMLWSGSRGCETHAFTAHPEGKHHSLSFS
Nature of the experiment: JAK3 inhibition assay (33P incorporation into poly(Glu)4Tyr). An outline of the steps:
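After TCA quench and filter harvest, scintillation counting of 33P measured phosphorylation of poly(Glu)4Tyr (1 μM) by 1 nM JAK3. The 20-min, 25° C. reaction contained 5 μM ATP (200 μCi/μmole) in pH 7.4 HEPES buffer with 10 mM MgCl2.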

For experiment [3], the target named is JAK2 (Homo sapiens, UniProt O60674). Nature of the experiment: JAK2 inhibition assay (as Example 3 with JAK-2 enzyme). Summed up: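 In HEPES pH 7.4 buffer with 10 mM MgCl2, 1 mM DTT, 25 mM NaCl and 0.01% BSA, JAK2 enzyme phosphorylated poly(Glu)4Tyr (final 15 μM) using 33P-ATP (final 12 μM) for 20 min at room temperature (25 °C). Reactions stopped with TCA; incorporated 33P measured by scintillation after filtration.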
Sequence of JAK2 (O60674 whole entry): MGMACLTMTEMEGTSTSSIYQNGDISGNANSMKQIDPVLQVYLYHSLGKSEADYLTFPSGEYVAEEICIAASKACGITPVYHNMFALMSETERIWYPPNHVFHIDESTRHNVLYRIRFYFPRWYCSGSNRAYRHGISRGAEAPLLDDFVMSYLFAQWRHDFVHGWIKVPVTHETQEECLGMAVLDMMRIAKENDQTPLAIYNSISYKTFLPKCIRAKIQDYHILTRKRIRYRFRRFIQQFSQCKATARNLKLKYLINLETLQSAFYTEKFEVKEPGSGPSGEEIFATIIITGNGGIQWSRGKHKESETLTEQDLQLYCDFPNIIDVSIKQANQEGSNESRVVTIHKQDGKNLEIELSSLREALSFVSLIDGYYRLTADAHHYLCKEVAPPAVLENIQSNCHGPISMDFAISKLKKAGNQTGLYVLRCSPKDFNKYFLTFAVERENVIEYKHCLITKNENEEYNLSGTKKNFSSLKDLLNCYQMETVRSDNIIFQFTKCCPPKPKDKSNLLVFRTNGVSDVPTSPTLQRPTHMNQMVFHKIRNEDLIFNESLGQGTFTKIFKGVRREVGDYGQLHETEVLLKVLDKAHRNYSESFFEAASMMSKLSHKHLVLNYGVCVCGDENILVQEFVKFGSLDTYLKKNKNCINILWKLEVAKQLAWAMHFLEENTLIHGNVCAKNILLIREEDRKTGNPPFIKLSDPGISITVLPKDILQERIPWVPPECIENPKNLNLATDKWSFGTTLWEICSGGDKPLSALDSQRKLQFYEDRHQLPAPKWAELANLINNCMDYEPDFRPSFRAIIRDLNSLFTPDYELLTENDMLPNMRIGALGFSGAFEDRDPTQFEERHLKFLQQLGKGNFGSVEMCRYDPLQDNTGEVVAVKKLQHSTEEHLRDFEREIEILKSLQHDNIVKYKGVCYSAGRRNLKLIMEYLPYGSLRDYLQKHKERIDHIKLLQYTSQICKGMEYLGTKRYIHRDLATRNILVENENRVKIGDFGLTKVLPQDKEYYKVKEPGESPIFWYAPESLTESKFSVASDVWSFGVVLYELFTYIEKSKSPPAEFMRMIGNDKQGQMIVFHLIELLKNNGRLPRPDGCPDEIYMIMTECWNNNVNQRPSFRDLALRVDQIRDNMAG

The mark [4] stands for this setting: enzyme inhibition, Ki(app), Table 5.
Setting [5] is: Table 6, enzyme inhibition data (Ki).

Some results are limits rather than exact numbers.

Sequence of ROCK I (Q13464 whole entry): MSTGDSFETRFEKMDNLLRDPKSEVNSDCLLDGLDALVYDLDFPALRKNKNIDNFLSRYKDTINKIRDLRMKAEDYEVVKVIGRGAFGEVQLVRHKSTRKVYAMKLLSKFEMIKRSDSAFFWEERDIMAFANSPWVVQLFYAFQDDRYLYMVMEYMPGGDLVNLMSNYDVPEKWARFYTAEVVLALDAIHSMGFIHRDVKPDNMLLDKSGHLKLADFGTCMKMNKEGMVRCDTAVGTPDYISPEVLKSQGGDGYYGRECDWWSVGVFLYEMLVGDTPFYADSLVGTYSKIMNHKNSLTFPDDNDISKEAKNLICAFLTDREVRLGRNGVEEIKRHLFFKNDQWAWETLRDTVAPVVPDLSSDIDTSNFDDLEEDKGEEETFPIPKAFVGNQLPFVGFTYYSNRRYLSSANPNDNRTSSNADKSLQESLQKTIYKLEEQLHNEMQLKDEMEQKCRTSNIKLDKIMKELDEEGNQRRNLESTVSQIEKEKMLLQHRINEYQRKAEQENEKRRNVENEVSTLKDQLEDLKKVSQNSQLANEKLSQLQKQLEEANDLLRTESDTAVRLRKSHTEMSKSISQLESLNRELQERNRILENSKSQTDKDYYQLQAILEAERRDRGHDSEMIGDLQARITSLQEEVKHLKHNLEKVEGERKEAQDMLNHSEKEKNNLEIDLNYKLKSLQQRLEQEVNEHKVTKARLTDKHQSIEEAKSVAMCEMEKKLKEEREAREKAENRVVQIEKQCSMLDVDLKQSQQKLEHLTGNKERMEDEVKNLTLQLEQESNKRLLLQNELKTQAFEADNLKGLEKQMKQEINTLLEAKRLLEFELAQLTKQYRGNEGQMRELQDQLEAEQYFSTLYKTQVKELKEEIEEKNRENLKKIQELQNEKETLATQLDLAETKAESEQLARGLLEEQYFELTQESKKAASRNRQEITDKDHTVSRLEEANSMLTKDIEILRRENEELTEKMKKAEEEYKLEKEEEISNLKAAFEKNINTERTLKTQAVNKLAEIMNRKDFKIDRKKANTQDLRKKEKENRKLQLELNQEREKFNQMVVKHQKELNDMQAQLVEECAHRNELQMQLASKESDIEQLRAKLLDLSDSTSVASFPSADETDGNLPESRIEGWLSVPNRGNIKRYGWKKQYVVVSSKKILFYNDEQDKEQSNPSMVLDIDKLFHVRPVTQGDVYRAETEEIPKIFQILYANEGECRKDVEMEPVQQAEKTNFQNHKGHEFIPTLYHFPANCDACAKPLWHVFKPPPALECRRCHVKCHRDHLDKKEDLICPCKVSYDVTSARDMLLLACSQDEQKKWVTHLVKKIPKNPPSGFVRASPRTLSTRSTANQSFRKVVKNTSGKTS

Take `CC1CCCC=C1c1c(Cl)cnc2[nH]ccc12` (stereo not drawn) [compound 68]: the Ki was 500 to 5000 nM in experiment [1] (setting [4]); less than 500 nM in experiment [2] (enzyme inhibition, Table 5); 500 to 5000 nM in experiment [3] (enzyme inhibition, Table 5).

With `C[C@H](Nc1ccnc(-c2ccnc3[nH]ccc23)n1)C(=O)NCC(F)(F)F` [compound 120, (S)-2-(2-(1H-pyrrolo[2,3b]pyridin-4-yl)pyrimidin-4-ylamino)-N-(2,2,2-trifluoroethyl)propanamide], the Ki in experiment [1] (setting [4]) was 500 to 5000 nM; in experiment [2] (enzyme inhibition, Table 5), less than 500 nM; in experiment [3] (enzyme inhibition, Table 5), 500 to 5000 nM.

For `Oc1ccccc1-c1ccnc2[nH]ccc12` [compound 248], the Ki in experiment [1] (setting [5]), in experiment [2] (setting [5]) and in experiment [3] (setting [5]) was 500 to 5000 nM throughout.

With `CN(CCO)c1cccc(-c2c(Cl)cnc3[nH]ccc23)n1` [compound 77], the Ki in experiment [1] (setting [4]) is 500 to 5000 nM; in experiment [2] (enzyme inhibition, Table 5), less than 500 nM; in experiment [3] (enzyme inhibition, Table 5), less than 500 nM.

`CC1CCC(Nc2c(Cl)cnc3[nH]ccc23)CC1` (stereo not drawn) [compound 229]: the results for the Ki in experiment [1] (setting [5]), in experiment [2] (setting [5]) and in experiment [3] (setting [5]) were 500 to 5000 nM, less than 500 nM and less than 500 nM, respectively.

Regarding `O=C(CC(F)(F)F)N1CC[C@@H](Nc2c(Cl)cnc3[nH]ccc23)C1` [compound 189], the Ki in experiment [1] (setting [5]) is greater than 4000 nM; in experiment [2] (setting [5]), 500 to 5000 nM; in experiment [3] (setting [5]) it was less than 500 nM.

On to `O=C(Nc1cccc(-c2ccnc3[nH]ccc23)n1)c1ccccc1` [compound 100, N-(6-(1H-pyrrolo[2,3-b]pyridine-4-yl)pyridin-2-yl)benzamide], for which the Ki in experiment [1] (setting [4]) is 500 to 5000 nM; in experiment [2] (enzyme inhibition, Table 5) it was 500 to 5000 nM; in experiment [3] (enzyme inhibition, Table 5), less than 500 nM.

As for `CCCN(CC1CC1)C(=O)c1cc(-c2c(Cl)cnc3[nH]ccc23)c[nH]1` [compound 334], the Ki in experiment [1] (setting [5]) was 500 to 5000 nM; in experiment [2] (setting [5]), less than 500 nM; in experiment [3] (setting [5]), less than 500 nM.

In the case of `CC(C)[C@@H]1CC[C@@H](C)C[C@H]1Nc1c(Cl)cnc2[nH]ccc12` [compound 151], the Ki in experiment [1] (setting [5]) was greater than 4000 nM; in experiment [2] (setting [5]), 500 to 5000 nM; in experiment [3] (setting [5]) it was 500 to 5000 nM.

As for `Clc1cnc2[nH]ccc2c1Nc1cccc(-c2cnco2)c1` [compound 156], the Ki in experiment [1] (setting [5]) is greater than 4000 nM; in experiment [2] (setting [5]), less than 500 nM; in experiment [3] (setting [5]), less than 500 nM.

Turning to `CN(CC(F)(F)F)C(=O)c1cc(-c2c(Cl)cnc3[nH]ccc23)c[nH]1` [compound 360], the Ki in experiment [1] (setting [5]) was 500 to 5000 nM; in experiment [2] (setting [5]), less than 500 nM; in experiment [3] (setting [5]), less than 500 nM.

As to `Clc1cnc2[nH]ccc2c1N[C@@H]1C[C@H]2CC[C@@H]1C2` [compound 150], the Ki in experiment [1] (setting [5]), in experiment [2] (setting [5]) and in experiment [3] (setting [5]) was less than 500 nM throughout.

Consider `CC1CCCCN1C(=O)c1csc(-c2ccnc3[nH]ccc23)n1` (stereo not drawn) [compound 420], for which the Ki in experiment [1] (setting [5]), in experiment [2] (setting [5]) and in experiment [3] (setting [5]) was less than 500 nM throughout.

Turning to `CC(C)CNC(=O)c1cc(-c2ccnc3[nH]ccc23)c[nH]1` [compound 291], the Ki in experiment [1] (setting [5]), in experiment [2] (setting [5]) and in experiment [3] (setting [5]) was less than 500 nM throughout.

On to `CN(CCc1ccccn1)C(=O)c1cc(-c2ccnc3[nH]ccc23)c[nH]1` [compound 367], for which the Ki in experiment [1] (setting [5]), in experiment [2] (setting [5]) and in experiment [3] (setting [5]) was less than 500 nM throughout.

As to `CC(=O)Nc1ccccc1-c1c(Cl)cnc2[nH]ccc12` [compound 128], the Ki in experiment [1] (setting [4]) is 500 to 5000 nM; in experiment [2] (enzyme inhibition, Table 5), greater than 5000 nM; in experiment [3] (enzyme inhibition, Table 5) it was greater than 5000 nM.

For the compound `CCCCN(CC#N)C(=O)c1cc(-c2c(Cl)cnc3[nH]ccc23)c[nH]1` [compound 332], the Ki in experiment [1] (setting [5]) was 500 to 5000 nM; in experiment [2] (setting [5]), less than 500 nM; in experiment [3] (setting [5]) it was less than 500 nM.

With `O=S(=O)(C1CC1)N1CC[C@H](Nc2c(Cl)cnc3[nH]ccc23)C1` [compound 179], the Ki in experiment [1] (setting [5]) was greater than 4000 nM; in experiment [2] (setting [5]), less than 500 nM; in experiment [3] (setting [5]) it was less than 500 nM.

As to `O=C(c1cc(-c2c(F)cnc3[nH]ccc23)c[nH]1)N(CC1CC1)CC(F)(F)F` [compound 387], the Ki in experiment [1] (setting [5]), in experiment [2] (setting [5]) and in experiment [3] (setting [5]) was less than 500 nM each time.

As for `CCN(Cc1ccccn1)C(=O)c1cc(-c2ccnc3[nH]ccc23)c[nH]1` [compound 305], the Ki was 500 to 5000 nM in experiment [1] (setting [5]), less than 500 nM in experiment [2] (setting [5]) and less than 500 nM in experiment [3] (setting [5]).

`Nc1nc(-c2ccnc3[nH]ccc23)ncc1F` [compound 203]: the Ki in experiment [1] (setting [5]) was greater than 4000 nM; in experiment [2] (setting [5]) it was 500 to 5000 nM; in experiment [3] (setting [5]) it was 500 to 5000 nM.

For the compound `FC(F)(F)c1ccccc1-c1ccnc2[nH]ccc12` [compound 208], the Ki in experiment [1] (setting [5]) is 500 to 5000 nM; in experiment [2] (setting [5]) it was greater than 5000 nM; in experiment [3] (setting [5]), greater than 5000 nM.

As to `C[C@H](Nc1cccc(-c2ccnc3[nH]ccc23)n1)C(=O)NCC(F)(F)F` [compound 122, (S)-2-(6-(1H-pyrrolo[2,3b]pyridin-4-yl)pyridin-2-ylamino)-N-(2,2,2-trifluoroethyl)propanamide], the Ki in experiment [1] (setting [4]) is 500 to 5000 nM; in experiment [2] (enzyme inhibition, Table 5) it was less than 500 nM; in experiment [3] (enzyme inhibition, Table 5) it was 500 to 5000 nM.

As for `CC(C)(O)c1cccc(-c2ccnc3[nH]ccc23)n1` [compound 123, 2-(6-(1H-pyrrolo[2,3-b]pyridin-4-yl)pyridin-2-yl)propan-2-ol], the Ki in experiment [1] (setting [4]) was less than 500 nM; in experiment [2] (enzyme inhibition, Table 5) it was less than 500 nM; in experiment [3] (enzyme inhibition, Table 5), less than 500 nM.

Regarding `c1ccc(-c2ccccc2-c2ccnc3[nH]ccc23)cc1` [compound 226], the Ki in experiment [1] (setting [5]) was greater than 4000 nM; in experiment [2] (setting [5]) it was greater than 5000 nM; in experiment [3] (setting [5]), greater than 5000 nM.

As for `O=C(NCC(F)(F)F)[C@H]1CCCN1c1nc(-c2ccnc3[nH]ccc23)ncc1F` [compound 198], the figures for the Ki in experiment [1] (setting [5]), in experiment [2] (setting [5]) and in experiment [3] (setting [5]) were greater than 4000 nM, 500 to 5000 nM and 500 to 5000 nM, respectively.

Consider `CN(Cc1cccnc1)C(=O)c1cc(-c2ccnc3[nH]ccc23)c[nH]1` [compound 370], for which the Ki in experiment [1] (setting [5]), in experiment [2] (setting [5]) and in experiment [3] (setting [5]) was less than 500 nM in each case.

For the compound `CN(CC(F)(F)F)C(=O)c1cc(-c2c(F)cnc3[nH]ccc23)c[nH]1` [compound 393], the Ki in experiment [1] (setting [5]), in experiment [2] (setting [5]) and in experiment [3] (setting [5]) was less than 500 nM each time.

In the case of `CS(=O)(=O)Nc1ccccc1-c1ccnc2[nH]ccc12` [compound 247], the results for the Ki in experiment [1] (setting [5]), in experiment [2] (setting [5]) and in experiment [3] (setting [5]) were greater than 4000 nM, greater than 5000 nM and greater than 5000 nM, respectively.

Take `CC(C)CNc1cccc(-c2c(Cl)cnc3[nH]ccc23)n1` [compound 78, 6-(5-Chloro-1H-pyrrolo[2,3-b]pyridin-4-yl)-N-isobutylpyridin-2-anine]: the Ki in experiment [1] (setting [4]) is 500 to 5000 nM; in experiment [2] (enzyme inhibition, Table 5), 500 to 5000 nM; in experiment [3] (enzyme inhibition, Table 5) it was 500 to 5000 nM.

Consider `CC(C)(C(=O)CC#N)c1cccc(-c2ccnc3[nH]ccc23)n1` [compound 125, 4-(6-(1H-pyrrolo[2,3-b]pyridin-4-yl)pyridin-2-yl)-4-methyl-3-oxopentanitrile], for which the Ki in experiment [1] (setting [4]) was less than 500 nM; in experiment [2] (enzyme inhibition, Table 5), less than 500 nM; in experiment [3] (enzyme inhibition, Table 5) it was less than 500 nM.

Regarding `CCCN(CCC)C(=O)c1cc(-c2c(Cl)cnc3[nH]ccc23)c[nH]1` [compound 340], the Ki is greater than 4000 nM in experiment [1] (setting [5]), less than 500 nM in experiment [2] (setting [5]) and less than 500 nM in experiment [3] (setting [5]).

With `CS(=O)(=O)N1CC[C@H](Nc2c(Cl)cnc3[nH]ccc23)C1` [compound 185], the Ki was greater than 4000 nM in experiment [1] (setting [5]), less than 500 nM in experiment [2] (setting [5]) and less than 500 nM in experiment [3] (setting [5]).

As for `Clc1cnc2[nH]ccc2c1-c1cccs1` [compound 135], the Ki in experiment [1] (setting [5]), in experiment [2] (setting [5]) and in experiment [3] (setting [5]) was less than 500 nM each time.
